pIC50: −log10 of the molar value. Like-named read-outs stand apart in the source and are kept apart here. Values belong to the molecule of their own block, whether it stands above or below them.
Key:
[1] = system: PC3; test: Inhibition of cell proliferation (PC3); type: cell-based; settings: Homo sapiens, PC-3; Table 2B; Prostate; average; read-out: IC50 Aver, PC3
[2] = system: Hela; test: Inhibition of cell proliferation (Hela); type: cell-based; settings: Homo sapiens, Table 2B, Cervical, average, read-out: IC50 Aver, Hela
[3] = Pharmacokinetics in Balbc mice; type: in vivo; settings: Balbc male mice
Procedure: The pharmacokinetic parameters for several compounds listed above were determined in mice following IV (intravenous) or IP (intraperitoneal) administration. Briefly, six Balbc male mice 7 to 8 weeks old were used for each study. A dose of 5 mg/kg or 10 mg/kg was administered using a 5% DMSO/90% Captisol (20% in water) solution for ACT-CK-050 or FFF for ACT-CK-154. Blood samples were collected at different intervals. Plasma samples were extracted and analyzed using an LC-MS/MS method. Results are represented in FIGS. 1 and 2.

[4] = biological target: T1, Choline Kinase α (CKα) (Homo sapiens, UniProt P35790); test: Inhibition of Choline Kinase α, kinase activity assay; type: biochemical; settings: recombinant CKα expressed in E. coli
T1 construct: GST; made in house; host or cells: E. coli BL21(DE3)
Procedure: CKα was prepared by expression in E. coli (Bl21(DE3)) and purified by GST column and column chromatography. […] The recombinant protein was pure and active as determined by the results of a kinase activity assay.

[5] = system: Hep G2; test: Inhibition of cell proliferation (Hep G2); type: cell-based; settings: Homo sapiens, HepG2; Table 2B; Liver; average; read-out: IC50 Aver, Hep G2
[6] = system: Calu-6; test: Inhibition of cancer cell proliferation, Alamar Blue assay (Calu-6); type: cell-based; settings: Homo sapiens
Procedure: (§1) The ability of the compounds described herein to kill or inhibit the proliferation of cancer cells was measured using the Alamar Blue assay using a 72 hours exposure. Results for different cancer cell lines are shown in, the Table 2 below (hematopoietic cell lines U937 and K562; MDA-MB-231 a breast cancer cell line; and NCI-H82 and Calu-6, two lung cancer cell lines): […]

[7] = system: MKN-45; test: Inhibition of cell proliferation (MKN-45); type: cell-based; settings: Homo sapiens, Table 2B, Gastric, average, read-out: IC50 Aver, MKN-45
[8] = system: MDA-MB-231; test: Inhibition of cancer cell proliferation, Alamar Blue assay (MDA-MB-231); type: cell-based; settings: Homo sapiens
Procedure: as §1

[9] = system: Colo-205; test: Inhibition of cell proliferation (Colo-205); type: cell-based; settings: Homo sapiens, Table 2B, Colorectal, average, read-out: IC50 Aver, Colo-205
[10] = system: DU145; test: Inhibition of cell proliferation (DU145); type: cell-based; settings: Homo sapiens, DU-145; Table 2B; Prostate; average; read-out: IC50 Aver, DU145
[11] = system: HCT-116; test: Inhibition of cell proliferation (HCT-116); type: cell-based; settings: Homo sapiens, Table 2B, Colon, average, read-out: IC50 Aver, HCT-116
[12] = system: NCI-H2122; test: Inhibition of cell proliferation (NCI-H2122); type: cell-based; settings: Homo sapiens, Table 2B, Lung, average, read-out: IC50 Aver, NCI-H2122
[13] = system: Jurkat; test: Inhibition of cell proliferation (Jurkat); type: cell-based; settings: Homo sapiens, Table 2B, Leukemia, average, read-out: IC50 Aver, Jurkat
[14] = Microsomal stability in human liver microsomes; type: in vitro ADME
Text: Microsomal stability in vitro in different biologic media and species is ascertained when screening compounds to evaluate the rate at which a compound undergoes metabolism.

[15] = system: NCI-H82; test: Inhibition of cancer cell proliferation, Alamar Blue assay (NCI-H82); type: cell-based; settings: Homo sapiens
Procedure: as §1

[16] = system: U937; test: Inhibition of cancer cell proliferation, Alamar Blue assay (U937); type: cell-based; settings: Homo sapiens, U-937
Procedure: as §1

[17] = system: HT-29; test: Inhibition of cell proliferation (HT-29); type: cell-based; settings: Homo sapiens, Table 2B, Colon, average, read-out: IC50 Aver, HT-29
[18] = system: K562; test: Inhibition of cancer cell proliferation, Alamar Blue assay (K562); type: cell-based; settings: Homo sapiens
Procedure: as §1

[19] = Permeability in Caco2 cells; type: in vitro ADME; settings: human, Caco-2, Caco2 cells
Text: (§2) The determination of the permeability in Caco2 cells is widely used in screening compounds to assess intestinal drug transport and predict absorption rates.

[20] = system: Caco2 cells; test: Permeability in Caco2 cells; type: in vitro ADME; settings: Caco2
Text: as §2

[21] = system: H209; test: Inhibition of cell proliferation (H209); type: cell-based; settings: Homo sapiens, NCI-H209; Table 2B; Lung; average; read-out: IC50 Aver, H209
[22] = system: A431; test: Inhibition of cell proliferation (A431); type: cell-based; settings: Homo sapiens, A-431; Table 2B; epidermi; average; read-out: IC50 Aver, A431
[23] = IV or IP, 5 mg/kg or 10 mg/kg, 5% DMSO/90% Captisol solution
[24] = Table 2A, Alamar Blue, 72 hours exposure, read-out: IC50s Calu-6
[25] = Table 2A, Alamar Blue, 72 hours exposure, read-out: IC50s MDA-MB231
[26] = Table 2A, Alamar Blue, 72 hours exposure, read-out: IC50s NCI-H82
[27] = Table 2A, Alamar Blue, 72 hours exposure, read-out: IC50s U937
[28] = Table 2A, Alamar Blue, 72 hours exposure, read-out: IC50s K562
[29] = comparison of A-B and B-A values

T1 sequence (P35790 whole entry): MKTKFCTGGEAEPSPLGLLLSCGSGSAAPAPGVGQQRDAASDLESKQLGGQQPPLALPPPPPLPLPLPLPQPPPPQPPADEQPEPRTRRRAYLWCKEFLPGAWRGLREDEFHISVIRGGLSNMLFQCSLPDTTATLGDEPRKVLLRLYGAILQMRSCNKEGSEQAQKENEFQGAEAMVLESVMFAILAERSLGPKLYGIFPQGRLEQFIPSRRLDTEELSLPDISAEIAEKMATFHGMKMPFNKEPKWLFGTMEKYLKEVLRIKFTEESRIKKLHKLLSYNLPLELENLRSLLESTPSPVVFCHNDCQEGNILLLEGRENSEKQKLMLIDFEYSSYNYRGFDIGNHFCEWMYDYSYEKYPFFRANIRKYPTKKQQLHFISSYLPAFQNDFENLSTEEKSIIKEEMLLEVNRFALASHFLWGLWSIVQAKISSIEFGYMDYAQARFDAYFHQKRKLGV

pIC50 [6, 24]: 5.77
pIC50 [8, 25]: 5.15
pIC50 [15, 26]: 5.77
pIC50 [16, 27]: 5.96
pIC50 [18, 28]: 5.49
Compound: CCOc1ccc(-c2nnc(SCC(=O)Nc3cccc(C)c3)[nH]2)cc1 [ACT-CK-156, 2-[5-(4-Ethoxy-phenyl)-4H-[1,2,4]triazol-3-ylsulfanyl]-N-m-tolyl-acetamide]

pIC50 [4]: 4.30
Compound: CCOc1ccc(-c2nnc(SCC(=O)Nc3cccc(OC)c3)[nH]2)cc1 [ACT-CK-157, 2-[5-(4-Ethoxy-phenyl)-4H-[1,2,4]triazol-3-ylsulfanyl]-N-(3-methoxy-phenyl)-acetamide]

Cmax ([3]; IV, 5 mg/kg): 3639 ng/mL
T1/2b ([3]; IV, 5 mg/kg): 9 min
Vd ([3]; IV, 5 mg/kg): 1.66 L/kg
pIC50 [6, 24]: 7.52
pIC50 [8, 25]: 5.59
% Metabolized (mean) [14]: 99%
pIC50 [15, 26]: 6.80
pIC50 [16, 27]: 7.70
pIC50 [18, 28]: 6.10
Compound: CCOc1ccc(-c2nnc(SCC(=O)Nc3cc(C)cc(C)c3)[nH]2)cc1F [ACT-CK-154, N-(3,5-Dimethyl-phenyl)-2-[5-(4-ethoxy-3-fluoro-phenyl)-4H-[1,2,4]triazol-3-ylsulfanyl]acetamide]

pIC50 [4]: < 4.00
Compound: CCOc1ccc(-c2nnc(SCC(=O)NC3CC(C)(C)NC(C)(C)C3)[nH]2)cc1 [ACT-CK-170, 2-[5-(4-Ethoxy-phenyl)-4H-[1,2,4]triazol-3-ylsulfanyl]-N-(2,2,6,6-tetramethyl-piperidin-4-yl)-acetamide]

Second part, the molecule before the results:

Compound: CCOc1ccc(-c2nnc(SCC(=O)Nc3cc(C)cc(C)c3)[nH]2)cc1 [ACT-CK-050, N-(3,5-Dimethyl-phenyl)-2-[5-(4-ethoxy-phenyl)-4H-[1,2,4]triazol-3-ylsulfanyl]-acetamide]
pIC50 [1]: 6.62
pIC50 [2]: 7.66
Clearance (in words) [3, 23]: cleared too quickly
Plasma levels (in words) [3, 23]: too low
pIC50 [4]: 4.70
pIC50 [5]: 6.79
pIC50 [6, 24]: 7.22
pIC50 ([6]; Table 2B, Lung, average, read-out: IC50 Aver, Calu-6): 7.24
pIC50 [7]: 7.33
pIC50 [8, 25]: 4.73
pIC50 ([8]; Table 2B, Breast, average, read-out: IC50 Aver, MDA-MB-231): 4.73
pIC50 [9]: 6.62
pIC50 [10]: 6.22
pIC50 [11]: 6.28
pIC50 [12]: 6.76
pIC50 [13]: 4.98
% Metabolized (mean) [14]: 99%
pIC50 [15, 26]: 7.05
pIC50 ([15]; Table 2B, Lung, average, read-out: IC50 Aver, NCI-H82): 7.02
pIC50 [16, 27]: 7.22
pIC50 ([16]; Table 2B, lymphoma, average, read-out: IC50 Aver, U937): 7.20
pIC50 [17]: 4.05
pIC50 [18, 28]: 7.40
pIC50 ([18]; Table 2B, Leukemia, average, read-out: IC50 Aver, K562): 7.37
Papp A→B ([19]; apical to basal): 46.1 ×10⁻⁶ cm/s
Papp B→A ([19]; basal to apical): 16.2 ×10⁻⁶ cm/s
Pgp substrate (in words) [20, 29]: not a Pgp substrate
active efflux (in words) [20, 29]: not actively effluxed out the cells
permeability properties (in words) ([20]; high permeability determined as Papp>10×10^−6 cm/s): high permeability
pIC50 [21]: 6.44
pIC50 [22]: 6.93

Compound: CCOc1ccc(-c2nnc(SCC(=O)N(C)c3cc(C)cc(C)c3)[nH]2)cc1 [ACT-CK-153, N-(3,5-Dimethyl-phenyl)-2-[5-(4-ethoxy-phenyl)-4H-[1,2,4]triazol-3-ylsulfanyl]-N-methyl-acetamide]
pIC50 [4]: 4.52
% Metabolized (mean) [14]: 99%

Compound: CCOc1ccc(-c2nnc(SCC(=O)Nc3nc(C)cc(C)n3)[nH]2)cc1 [ACT-CK-148, N-(4,6-Dimethyl-pyrimidin-2-yl)-2-[5-(4-ethoxy-phenyl)-4H-[1,2,4]triazol-3-ylsulfanyl]-acetamide]
pIC50 [6, 24]: 6.33
pIC50 [8, 25]: 4.54
% Metabolized (mean) [14]: 54%
pIC50 [15, 26]: 5.09
pIC50 [16, 27]: 6.30
pIC50 [18, 28]: 6.14

Compound: CCOc1ccc(-c2nnc(SCC(=O)Nc3cc(OC)cc(OC)c3)[nH]2)cc1 [ACT-CK-109, N-(3,5-Dimethoxy-phenyl)-2-[5-(4-ethoxy-phenyl)-4H-[1,2,4]triazol-3-ylsulfanyl]-acetamide]
pIC50 [4]: 4.74
